ChEMBL document CHEMBL3137667, “[Drug-induced liver injury; fourteenth updated edition of the bibliographic database of liver injuries and related drugs]” (Gastroenterol Clin Biol, 2004)

How the values were obtained:
[1] = human
[2] = Proposed mechanism(s) of liver damage. [column 'MEC' in source]; conditions: human
[3] = human; remark: listed apart in the source
[4] = human, serum
[5] = human; remark: listed apart in the source
[6] = Highest frequency of acute liver toxicity observed during clinical trials, expressed as a percentage. [column '% AIGUE' in source]; conditions: human
[7] = Comments (NB not yet translated). [column 'COMMENTAIRES' in source]; conditions: human
[8] = human; remark: listed apart in the source
[9] = human; remark: listed apart in the source
[10] = human; remark: listed apart in the source
[11] = Times to onset, minimal and maximal, observed in the indexed observations. [column 'DELAI' in source]; conditions: human
[12] = human; remark: listed apart in the source
[13] = human, serum, 4383 h
[14] = human, serum; remark: listed apart in the source
[15] = Highest frequency of moderate liver toxicity observed during clinical trials, expressed as a percentage. [column '% BIOL' in source]; conditions: human
[16] = human; remark: listed apart in the source
[17] = human; remark: listed apart in the source
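Wherever Hepatotoxicity (association with vascular disease) is given: count of indexed literature references reporting vascular liver injury in humans, e.g. peliosis hepatitis, hepatic veno-occlusive disease or Budd-Chiari syndrome.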
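Wherever Hepatotoxicity (benign tumour) is given: value is a count of indexed literature references citing a benign tumour confirmed by histopathology.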
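Wherever Hepatotoxicity (choleostasis) is given: human cholestatic liver injury, shown by histopathology or by peak ALT or AST elevation over alkaline phosphatase ratio below 2, value counts indexed literature reports.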
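Wherever Hepatotoxicity (chronic liver disease) is given: chronic liver injury confirmed by histopathology or persistently raised serum aminotransferase activity beyond 6 months, value given as the count of indexed literature references.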
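Wherever Hepatotoxicity (cirrhosis) is given: value is a count of indexed literature references reporting cirrhosis confirmed by histopathology.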
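Wherever Hepatotoxicity (cytolytic) is given: human cytolytic liver injury, shown by histopathology or by a ratio above 5 of peak ALT or AST elevation to alkaline phosphatase elevation, value counts indexed references.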
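Wherever Hepatotoxicity (granulomatous hepatitis) is given: value is a count of indexed literature references reporting granulomatous liver disease confirmed by histopathology.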
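Wherever Hepatotoxicity (malignant tumour) is given: malignant tumour confirmed by histopathology, value gives the count of indexed literature references reporting it.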
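Wherever Hepatotoxicity (severe hepatitis) is given: human clinical data: severe hepatitis, meaning potentially life-threatening liver failure or clinically observed cases, the value counts how many indexed literature references report it.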
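Wherever Hepatotoxicity (steatosis) is given: steatosis confirmed by histopathology, value is the count of indexed references.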

Molecule	Hepatotoxicity (severe hepatitis) ([1]; Liver)	Hepatotoxicity (mechanism) [2]	Hepatotoxicity (malignant tumour) [3]	Hepatotoxicity (acute) [4]	Hepatotoxicity (cirrhosis) [5]	Hepatotoxicity (acute) ([6]; Liver) [%]	Hepatotoxicity (comment) [7]	Hepatotoxicity (steatosis) [8]	Hepatotoxicity (choleostasis) [9]	Hepatotoxicity (benign tumour) [10]	Hepatotoxicity (time to onset) [11]	Hepatotoxicity (granulomatous hepatitis) [12]	Hepatotoxicity (chronic liver disease) [13]	Hepatotoxicity (moderate) [14]	Hepatotoxicity (moderate) ([15]; Liver) [%]	Hepatotoxicity (cytolytic) [16]	Hepatotoxicity (association with vascular disease) [17]	Hepatotoxicity (severe hepatitis) [1]	Hepatotoxicity (acute) [6] [%]	Hepatotoxicity (moderate) [15] [%]
Cc1ccc(C)c(OCCCC(C)(C)C(=O)O)c1 [GEMFIBROZIL]	0	Dose-dependant	0	1	0	0	I/LOVASTATINE	1	0	0	9 days - 12 days	0	0	24	10	1	0			
O=C(c1cc(O)c(O)c(O)c1)c1ccc(O)c(O)c1O [EXIFONE]		Allergic, Toxic	0	9	0		AC_ANTI-ML/-N	0	0	0	3 weeks - 8 months	0	0	0		9	0	4	0	0
CC(C)NCC(O)COc1cccc2ccccc12 (stereo not drawn) [PROPRANOLOL]		Allergic	0	5	0		CHOLANGIOLITE ENCEPHALOPATHIE	0	3	0	1 month - 9 months	0	0	5		4	0	0	0	10
GOLD		Allergic, Dose-dependant	0	52	0		AC_ANTI-ADN/-ML/-N HLA-DR3 PERICHOLANGITE	0	44	0	1 week - 5 years	1	1	22		7	0	5	0.8	40
C[C@H]1c2cccc(O)c2C(=O)C2=C(O)[C@]3(O)C(=O)C(C(N)=O)=C(O)[C@@H](N(C)C)[C@@H]3[C@@H](O)[C@@H]21.O [DOXYCYCLINE]		Allergic	0	5	0		CHOLESTASE_PROLONGEE DUCTOPENIE	2	3	0	1 day - 12 years	0	1	8		1	0	1	0	10
Cc1noc(NS(=O)(=O)c2ccc(N)cc2)c1C [SULFISOXAZOLE]	1	Allergic	0	4	0	0	CHOLANGITE RC/COTRIMOXAZOLE	0	2	0	2 days - 6 days	0	0	0	0	1	0			
CC1(C)S[C@@H]2[C@H](NC(=O)[C@H](N)c3ccc(O)cc3)C(=O)N2[C@H]1C(=O)O [AMOXICILLIN]	1	Allergic	0	10	0	0	CHOLESTASE_PROLONGEE CHOLANGITE DUCTOPENIE RC/ERYTHROMYCINE	0	7	0	3 days - 8 weeks	1	1	7	8	2	0			
CC(=O)Nc1ccc(OCC(O)CNC(C)C)cc1 (stereo not drawn) [PRACTOLOL]		Allergic	0	0	1		AC_ANTI-N/-M #CBP	0	0	0	16 months - 4 years	0	0	0		0	0	0	0	0
Cc1onc(-c2c(Cl)cccc2Cl)c1C(=O)N[C@@H]1C(=O)N2[C@@H]1SC(C)(C)[C@@H]2C(=O)O [DICLOXACILLIN]		Allergic	0	4	0		CHOLESTASE_PROLONGEE	0	3	0	5 days - 2 months	1	1	2		0	0	0	0	0
